Where two headings read alike, the source gives them in different places.
Tests used:
11β-hsd-1 enzyme [1] = biological target: T1, 11β-hsd-1 enzyme (Homo sapiens, UniProt P28845); test: biochemical
Method: The 11β-hsd-1 assay was performed in a 100 mM Triethanolamine buffer pH 8.0, containing 200 mM NaCl, 0.02% n-dodecyl β-D-maltoside, 5% glycerol, 5 mM β-mercaptoethanol. A typical reaction for the determination of Kiapp values was carried at R.T. in a Corning® u-bottom 96-well plate and is described as follows: 11β-hsd-1 enzyme (5 nM, final concentration) was pre-incubated in the presence of the inhibitor and NADPH (500 μM, final concentration) for at least 30 minutes in the assay buffer. When pre-incubation was completed, the reaction was initiated by adding the regenerating system (2 mM Glucose-6-Phosphate, 1U/mL Glucose-6-Phosphate dehydrogenase, and 6 mM MgCl2, all the concentration reported are final in the assay buffer), and 3H-cortisone (200 nM, final concentration). After 60 minutes, 60 μL of the assay mixture was transferred to a second 96-well plate and mixed with an equal volume of dimethylsulfoxide to stop the reaction. A 15 μL aliquot from the reaction mixture was loaded into a C-18 column (Polaris C18-A, 50×4.6 mm, 5 μ, 180 Angstrom from Varian) connected to an automated High-throughput Liquid Chromatography instrument developed by Cohesive Technologies Inc, of Franklin, Mass. USA, with a β-RAM model 3 Radio-HPLC detector from IN/US, of Tampa, Fla. USA. The substrate and product peaks were separated by using an isocratic mixture of 43:57 methanol to water (v/v) at a flow rate of 1.0 mL/min.
The initial reaction velocities were measured by stopping the reaction at 60 min and by measuring the area of product formation in the absence and the presence of various concentrations of inhibitors. The Kiapp values were determined using the equation for tight-binding inhibitor developed by Morrison, J. F. (Morrison J. F. Biochim BiophysActa. 1969; 185: 269-86).
The radiolabeled [1,2-3H]-cortisone is commercially available from American Radiolabeled Chemicals Inc of St. Louis, Mo. USA. NADPH, Glucose-6-Phosphate, and Glucose-6-Phosphate dehydrogenase were purchased from Sigma®.
(Morrison J. F. Biochim Biophys Acta. 1969; 185: 269-86).

11β-hsd-1 enzyme [2] = biological target: T1, 11β-hsd-1 enzyme; test: biochemical; conditions: for inhibition at 0.1 µM: read-out: % Inh @ 0.1 μM
Method in brief: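 Human 11β-HSD-1 (5 nM) pre-incubated ≥30 min with inhibitor and 500 μM NADPH in triethanolamine buffer pH 8.0 with NaCl, n-dodecyl β-D-maltoside and β-ME; reaction started with G6P/G6PDH/MgCl2 regenerating system and 200 nM 3H-cortisone, run 60 min, stopped with DMSO. 3H-cortisol and substrate separated by radio-HPLC; percent inhibition from peak areas.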

T1 sequence (P28845 whole entry, species assumed): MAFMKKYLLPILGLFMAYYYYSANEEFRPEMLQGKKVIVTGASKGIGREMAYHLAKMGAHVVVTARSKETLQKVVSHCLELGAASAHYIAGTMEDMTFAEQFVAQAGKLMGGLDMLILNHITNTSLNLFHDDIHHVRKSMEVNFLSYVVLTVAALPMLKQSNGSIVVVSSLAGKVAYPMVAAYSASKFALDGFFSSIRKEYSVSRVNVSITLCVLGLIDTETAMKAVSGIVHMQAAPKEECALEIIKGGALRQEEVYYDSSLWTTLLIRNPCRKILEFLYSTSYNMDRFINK

| SMILES | Ki (11β-hsd-1 enzyme [1]) | inhibition at 0.1 µM (11β-hsd-1 enzyme [2]) | inhibition at 0.1 µM (11β-hsd-1 enzyme [2]; Table 1, inhibitor 0.1 μM) | inhibition (11β-hsd-1 enzyme [2]; read-out: % Inh @ 0.1 mM) | inhibition at 100 µM (11β-hsd-1 enzyme [2]; Table 2, inhibitor 0.1 mM as printed, read-out: % Inh @ 0.1 mM) |
| --- | --- | --- | --- | --- | --- |
| C[C@@H]1CN(S(=O)(=O)Nc2cccc(CO)n2)CCN1c1ccc(C#N)cn1 [Example 30] | > 1 nM | 100% | – | – | – |
| Cc1cc(N)nc(NS(=O)(=O)N2CCN(c3ncc(F)cn3)CC2)c1 [Example 31, N-(6-amino-4-methylpyridin-2-yl)-4-(5-fluoropyrimidin-2-yl)piperazine-1-sulfonamide] | 11 nM | 100% | – | – | – |
| CC(C)c1cccc(NS(=O)(=O)N2CCN(c3ccc(C#N)cn3)CC2)n1 [Example 32, 4-(5-cyanopyridin-2-yl)-N-(6-isopropylpyridin-2-yl)piper-azine-1-sulfonamide] | 2.4 nM | 97% | – | – | – |
| Cc1cccc(NS(=O)(=O)N2CCC(c3ccc(C#N)cn3)CC2)n1 [Example 33, 4-(5-cyanopyridin-2-yl)-N-(6-methylpyridin-2-yl)piperidine-1-sulfonamide] | 50 nM | 100% | – | – | – |
| CC(C)c1cccc(NS(=O)(=O)N2CCC(c3ccc(C#N)cn3)CC2)n1 [Example 34] | 26 nM | 100% | – | – | – |
| O=S(=O)(Nc1ccc2ncccc2n1)N1CCN(c2ccc(C(F)(F)F)cn2)CC1 [Example 35, N-1,5-naphthyridin-2-yl-4-[5-(trifluoromethyl)pyridin-2-yl]piperazine-1-sulfonamide] | 10 nM | 100% | – | – | – |
| Cc1cc(Cl)cnc1N1CCN(S(=O)(=O)Nc2ccc3ncccc3n2)CC1 [Example 37, 4-(5-chloro-3-methylpyridin-2-yl)-N-1,5-naphthyridin-2-ylpiperazine-1-sulfonamide] | 100 nM | 80% | – | – | – |
| N#Cc1ccc(C2CCN(S(=O)(=O)Nc3ccc4ccccc4n3)CC2)nc1 [Example 38] | 31 nM | 100% | – | – | – |
| N#Cc1ccc(C2CCN(S(=O)(=O)Nc3cccc(N)n3)CC2)nc1 [Example 39] | 16 nM | 91% | – | – | – |
| CCc1cccc(NS(=O)(=O)N2CCCN(c3ccc(C#N)cn3)CC2)n1 [Example 42] | 17 nM | 89% | – | – | – |
| CCc1cccc(NS(=O)(=O)N2CCCN(c3ccc(C(F)(F)F)cn3)CC2)n1 [Example 43] | 12 nM | 93% | – | – | – |
| Cc1cccc(NS(=O)(=O)N2CCCN(c3ccc(C#N)cn3)CC2)n1 [Example 44] | 34 nM | 72% | – | – | – |
| N#Cc1ccc(N2CCCN(S(=O)(=O)Nc3ccc4ccccc4n3)CC2)nc1 [Example 45] | 53 nM | 73% | – | – | – |
| Cc1ccc(C)n1-c1cccc(NS(=O)(=O)N2CCC(c3ccc(F)cc3)CC2)n1 [Example 57, N-[6-(2,5-dimethyl-1H-pyrrol-1-yl)pyridin-2-yl]-4-(4-fluorophenyl)piperidine-1-sulfonamide] | 56 nM | – | 85% | – | – |
| CCc1cccc(NS(=O)(=O)N2CCC(c3ccc(F)cc3)CC2)n1 [Example 68] | 5.4 nM | 96.6% | – | – | – |
| CCc1cccc(NS(=O)(=O)N2CCCC(c3ccnc(N4CCOCC4)n3)C2)n1 (centres unmarked) [Example 71, N-(6-ethylpyridin-2-yl)-3-(2-morpholin-4-ylpyrimidin-4-yl)pipendine-1-sulfonamide] | 23 nM | – | – | 92.7% | – |
| CCc1cccc(NS(=O)(=O)N2CCC(c3ccc(C(=O)NC4CCCC4)cc3)CC2)n1 [Example 74, N-cyclopentyl-4-(1-{[(6-ethylpyrin-2-yl)amino]sulfonyl}pipendin-4-yl)benzamide] | 9.6 nM | – | – | 88.4% | – |
| CCc1cccc(NS(=O)(=O)N2CCC(CCc3ccccn3)CC2)n1 [Example 80, N-(6-ethylpyridin-2-yl)-4-(2-pyridin-2-ylethyl)piperidine-1-sulfonamide] | 5.6 nM | – | – | 93.8% | – |
| CCc1cccc(NS(=O)(=O)N2CCC(c3ccnc(N(C)C)n3)CC2)n1 [Example 81, 4-[2-(dimethylamino)pyrimi-din-4-yl]-N-(6-ethylpyridin-2-yl)piperidine-1-sulfonamide] | 230 nM | – | – | 86.8% | – |

| SMILES | Ki (11β-hsd-1 enzyme [1]) | inhibition at 0.1 µM (11β-hsd-1 enzyme [2]) | inhibition at 0.1 µM (11β-hsd-1 enzyme [2]; Table 1, inhibitor 0.1 μM) | inhibition (11β-hsd-1 enzyme [2]; read-out: % Inh @ 0.1 mM) | inhibition at 100 µM (11β-hsd-1 enzyme [2]; Table 2, inhibitor 0.1 mM as printed, read-out: % Inh @ 0.1 mM) |
| --- | --- | --- | --- | --- | --- |
| CCc1cccc(NS(=O)(=O)N2CCC(CCc3ccnc(NCC4CC4)n3)CC2)n1 [Example 82, 4-(2-{2-[(cyclopropylmethyl)-amino]pyrimidin-4-yl}ethyl)-N-(6-ethylpyridin-2-yl)piperidine-1-sulfonamide] | 11 nM | – | – | 100% | – |
| Cc1cccc(NS(=O)(=O)N2CCOC(COc3cc(F)cc(F)c3)C2)n1 (centres unmarked) [Example 83, 2-[(35-difluorophenoxy)meth-yl]-N-(6-methylpyridin-2-yl)morpholine-4-sulfonamide] | 110 nM | – | – | 71.2% | – |
| Cc1cccc(NS(=O)(=O)N2CCCC(c3ccccc3)CC2)n1 (centres unmarked) [Example 84, N-(6-methylpyridin-2-yl)-4-phenylazepane-1-sulfonamide] | 8.2 nM | – | – | 100% | – |
| Cc1cccc(NS(=O)(=O)N2CCCC(COCC3CC3)CC2)n1 (centres unmarked) [Example 86, 4-[(cyclopropylmethoxy)-methyl]-N-(6-methylpyridin-2-yl)azepane-1-sulfonamide] | 98 nM | – | – | 87.6% | – |
| Cc1ccc(C2(C)CN(S(=O)(=O)Nc3ccc4ccccc4n3)CCO2)cc1 (centres unmarked) [Example 87, 2-methyl-2-(4-methylphenyl)-N-quinolin-2-ylmorpholine-4-sulfonamide] | 25 nM | – | – | 85.2% | – |
| CCc1cccc(NS(=O)(=O)N2CCCC(OCc3ccccc3)C2)n1 (centres unmarked) [Example 88, 3-(benzyloxy)-N-(6-ethylpyridin-2-yl)piperidine-1-sulfonamide] | 52 nM | – | – | 77.1% | – |
| CCCC1CCN(S(=O)(=O)Nc2cccc(CC)n2)CC1 [Example 89, N-(6-ethylpyridin-2-yl)-4-propylpiperidine-1-sulfonamide] | 1 nM | – | – | 100% | – |
| CCc1cccc(NS(=O)(=O)N2CCCC(c3ccccc3)CC2)n1 (centres unmarked) [Example 90, N-(6-ethylpyridin-2-yl)-4-phenylazepane-1-sulfonamide] | 18 nM | – | – | 90.9% | – |
| CCc1cccc(NS(=O)(=O)N2CCC(OCc3ccccc3)CC2)n1 [Example 91, 4-(benzyloxy)-N-(6-ethylpyridin-2-yl)piperidine-1-sulfonamide] | 45 nM | – | – | 75.9% | – |
| CCc1cccc(NS(=O)(=O)N2CCCC(COC)CC2)n1 (centres unmarked) [Example 93, N-(6-ethylpyridin-2-yl)-4-(methoxymethyl)azepane-1-sulfonamide] | 110 nM | – | – | 69.7% | – |
| CCc1cccc(NS(=O)(=O)N2CCCC(COCC3CC3)CC2)n1 (centres unmarked) [Example 95, 4-[(cyclopropylmethoxy)-methyl]-N-(6-ethylpyridin-2-yl)azepane-1-sulfonamide] | 82 nM | – | – | 86.2% | – |
| CCc1cccc(NS(=O)(=O)N2CCCC(c3ccnc(N4CCCC4)n3)C2)n1 (centres unmarked) [Example 96, N-(6-ethylpyridin-2-yl)-3-(2-pyrrolidin-1-ylpyrimidin-4-yl)piperidine-1-sulfanamide] | 61 nM | – | – | 71.6% | – |
| O=S(=O)(Nc1ccc2ccccc2n1)N1CCCC(c2ccccc2)CC1 (centres unmarked) [Example 97, 4-phenyl-N-quinolin-2-ylazepane-1-sulfonamide] | 6.3 nM | – | – | 100% | – |
| O=S(=O)(Nc1ccc2ccccc2n1)N1CCCC(COCC2CC2)CC1 (centres unmarked) [Example 98, 4-[(cyclapropylmethoxy)meth-yl]-N-quinolin-2-ylazepane-1-sulfonamide] | 28 nM | – | – | 92.4% | – |
| COCC1CCCN(S(=O)(=O)Nc2ccc3ccccc3n2)CC1 (centres unmarked) [Example 99, 4-(methoxymethyl)-N-quinolin-2-ylazepane-1-sulfonamide] | 63 nM | – | – | 77.6% | – |
| O=S(=O)(Nc1ccc2ccccc2n1)N1CCOC(COc2cc(F)cc(F)c2)C1 (centres unmarked) [Example 100, 2-[(35-difluorophenoxy)meth-yl]-N-quinolin-2-ylmorpholine-4-sulfonamide] | 59 nM | – | – | 90.6% | – |
| CCc1cccc(NS(=O)(=O)N2CCCC(F)(F)C2)n1 [Example 101, N-(6-ethylpyridin-2-yl)-33-difluoropiperidine-1-sulfonamide] | 34 nM | – | – | 78.3% | – |
| CCc1cccc(NS(=O)(=O)N2CCC(Cc3cc(F)ccc3C)CC2)n1 [Example 102, N-(6-ethylpyridin-2-yl)-4-(5-fluoro-2-methylbenzyl)piperidine-1-sulfonamide] | 5.4 nM | – | – | – | 100% |
